Laboratory results from patent US6063777A, “Iminochlorinaspartic acid derivatives” (Wyeth Lederle Japan, Ltd., priority 1996, dated 2000).

What was measured:
[1] = Laser irradiation to extirpated organ: distribution (cancer/organ ratio) by surface fluorescence, N2-pulsed laser, mice bearing Colon 26; format: in vivo, CDF1 mice; conditions: mouse, tumor/plasma, sodium salt, 10 mg/kg intravenous
Protocol: (§1) CDF1 mice (5 per group) were implanted with tumor tissues of colon cancer Colon 26. Two weeks after the implantation, the mice were given an intravenous injection of sodium salt of each of compounds (I) and (II) (10 mg/kg for each mouse) which had been diluted with a distilled water for injection. At 3 hrs, 6 hrs and 12 hrs after the injection, the blood samples were collected and the organs bearing the tumor tissue were extirpated, irradiated with N2 -pulsed laser (N2, wavelength: 337 nm, 2 ns), and the excited fluorescent spectrum was measured. The wavelengths in the range of 600 to 900 nm were examined based on the peak wavelength of NADH at 470 nm (determination of the distribution of the test compound in the organ by the surface fluorescence method using N2 -pulsed laser spectrophotometry). That is, cancer/organ (or plasma) ratio was determined by calculating the peak wavelength in the range of 600 to 900 nm when the peak wavelength at 470 nm was considered as the basic value, 1.

[2] = test system: colon cancer Colon 26; assay: as above; format: in vivo, CDF1 mice; conditions: for Cancer/Brain ratio / Cancer/Kidney ratio / Cancer/Liver ratio / Cancer/Lung ratio / Cancer/Muscle ratio: sodium salt, 10 mg/kg intravenous
Protocol: as §1

[3] = test system: HeLa cells; assay: HeLa cell survival after diode laser (670 nm) irradiation, MTS-PMS reagent; format: cell-based
Protocol: HeLa cells were seeded in wells of a 96-well plate each containing 100 μl of a culture medium at 5×10^3 /well, and incubated at 37° C. overnight. In each well, the culture medium was removed, and 100 μl of a solution containing sodium salt of either of compound (I) or compound (II) in concentrations of 0, 6.25, 12.5, 25, 50 and 100 μM/ml was added (3 wells for each group of the concentrations) and incubated at 37° C. at for 6 hrs. Each well was washed with PBS(-) once, and then 100 μl of a fresh medium was added. The wells were irradiated using a diode laser (670 nm) under the conditions of 0.44W of laser intensity, 0.785 cm^2 of irradiation area (diameter: 1 cm) and 25 J/cm^2 of laser energy. After the irradiation, each well was incubated at 37° C. overnight and washed with PBS(-) once, then 100 μl of a fresh medium was added. To each well was added 20 μl of MTS-PMS reagent, and the well was further incubated at 37° C. for 2-4 hrs. The absorbance of each well at 492 nm was measured using a microplate reader. The cell survival rate at each of the above mentioned concentrations of the test compound was calculated considering the value for the well of 0 μM/ml of the test compound as 100%.

[4] = test system: retinal capillaries; assay: Occlusion of retinal capillaries by PDT, histological findings 24 hours after laser irradiation; format: in vivo, rats (Long Evance Rats); conditions: 16 mg/kg
Protocol: The following experiments were performed to investigate the optimal treatment parameters (timing of laser irradiation after dosing of the compound; laser irradiation dosage) for selective occlusion of choroidal neoplastic vessels by PDT using the compound of the present invention and a diode laser (produced by Hamamatsu Photonics; wavelength: 672 nm).
Photocoagulation was induced in rats (Long Evance Rats weighing 200-300 g) by Argon green laser irradiation (irradiation diameter: 100 μm, 140 mW, 0.1 sec) near the retinal papilla on funduc oculi. Ten days after photocoagulation, fundus photographs and fluorescein angiographs were taken and the animals showing development of choroidal neovascularization were used for experiments at the 11th day.
The compound of the present invention was administered via the tail vein at a dose of 16 mg/kg. After administration, time course distribution of the compound in the eyeball tissues was observed by fluorescence microscopy.
Laser irradiation was done by using the above-mentioned diode laser. The laser beam was confirmed to extend in the range of 500 μm in diameter on the retinal surface. Duration of irradiation was 4 minutes and the irradiation intensity varied at 30.6, 91.7, 152.9 and 244.9 mW/cm^2 on the retinal surface. These values correspond to 7.4, 22.0, 36.7 and 58.8 J/cm^2, respectively.
Assessment of the PDT using the compound of the present invention was made based on the fundus photographs taken with a fundus camera (produced by Jenesis Kowa) at 1 hour and 24 hours after laser irradiation. Occlusion of the neoplastic vessels and damage to the surrounding tissues were investigated by fluorescein antiography and histological examinations to assess the selectivity of the therapeutic effect.

**Q.** Which results are given for `C=Cc1c(C)c2cc3nc(cc4[nH]c(cc5nc(cc1[nH]2)C(C)=C5CCC(=O)NC(CC(=O)O)C(=O)O)c(CCC(=O)NC(CC(=O)O)C(=O)O)c4C)C(C)(O)C3=CC=NO` (centres unmarked) [Compound (I)]?
**A.** Kp at 3 h ([1]; 3 hr): 1.48; Kp at 6 h ([1]; 6 hr): 1.18; Kp at 12 h ([1]; 12 hr): 2.37; Cancer/Brain ratio ([2]; 3 hr): 11.24; Cancer/Kidney ratio ([2]; 3 hr): 1.54; Cancer/Liver ratio ([2]; 3 hr): 1.35; Cancer/Lung ratio ([2]; 3 hr): 5.02; Cancer/Muscle ratio ([2]; 3 hr): 4.19; Cancer/Brain ratio ([2]; 6 hr): 15.14; Cancer/Kidney ratio ([2]; 6 hr): 1.36; Cancer/Liver ratio ([2]; 6 hr): 2.02; Cancer/Lung ratio ([2]; 6 hr): 7.85; Cancer/Muscle ratio ([2]; 6 hr): 3.72; Cancer/Brain ratio ([2]; 12 hr): 15.0; Cancer/Kidney ratio ([2]; 12 hr): 1.27; Cancer/Liver ratio ([2]; 12 hr): 0.92; Cancer/Lung ratio ([2]; 12 hr): 6.45; Cancer/Muscle ratio ([2]; 12 hr): 4.73; accumulability to cancerous tissues ([2]; compared with position isomer): much higher accumulability to cancerous tissues as compared with its position isomer; cell destructing effect induced by a photosensitizing reaction [3]: strong cell destructing effect induced by a photosensitizing reaction; viability at 6.25 µM ([3]; Homo sapiens, HeLa, light or radiation study, 6.25 μM, sodium salt, 6 hrs, 670 nm, 25 J/cm^2, read-out: Cell Survival Rate): 43%; viability at 12.5 µM ([3]; Homo sapiens, HeLa, light or radiation study, 12.5 μM, sodium salt, 6 hrs, 670 nm, 25 J/cm^2, read-out: Cell Survival Rate): 19%; viability at 25 µM ([3]; Homo sapiens, HeLa, light or radiation study, 25 μM, sodium salt, 6 hrs, 670 nm, 25 J/cm^2, read-out: Cell Survival Rate): 13%; viability at 50 µM ([3]; Homo sapiens, HeLa, light or radiation study, 50 μM, sodium salt, 6 hrs, 670 nm, 25 J/cm^2, read-out: Cell Survival Rate): 10%; viability at 100 µM ([3]; Homo sapiens, HeLa, light or radiation study, 100 μM, sodium salt, 6 hrs, 670 nm, 25 J/cm^2, read-out: Cell Survival Rate): 10%; cell killing effect against tumor cells ([3]; compared with position isomer): remarkably higher cell killing effect against tumor cells compared with the position isomer; Occlusion of retinal capillaries ([4]; 7.4 J/cm^2, irradiation 60 min after administration): Closed; Occlusion of retinal capillaries ([4]; 7.4 J/cm^2, irradiation 120 min after administration): Open; Occlusion of retinal capillaries ([4]; 7.4 J/cm^2, irradiation 240 min after administration): Open; Occlusion of retinal capillaries ([4]; 22.0 J/cm^2, irradiation 60 min after administration): Closed; Occlusion of retinal capillaries ([4]; 22.0 J/cm^2, irradiation 120 min after administration): Open; Occlusion of retinal capillaries ([4]; 22.0 J/cm^2, irradiation 240 min after administration): Open; Occlusion of retinal capillaries ([4]; 22.0 J/cm^2, irradiation immediately after administration): Closed; Occlusion of retinal capillaries ([4]; 36.7 J/cm^2, irradiation 60 min after administration): Closed; Occlusion of retinal capillaries ([4]; 36.7 J/cm^2, irradiation 120 min after administration): Closed; Occlusion of retinal capillaries ([4]; 36.7 J/cm^2, irradiation 240 min after administration): Closed; Occlusion of retinal capillaries ([4]; 36.7 J/cm^2, irradiation immediately after administration): Closed; Occlusion of retinal capillaries ([4]; 58.8 J/cm^2, irradiation 60 min after administration): Closed; Occlusion of retinal capillaries ([4]; 58.8 J/cm^2, irradiation 120 min after administration): Closed; Occlusion of retinal capillaries ([4]; 58.8 J/cm^2, irradiation 240 min after administration): Closed; Occlusion of retinal capillaries ([4]; 58.8 J/cm^2, irradiation immediately after administration): Closed
